ChEMBL document CHEMBL4190204, “Trichoderpyrone, a Unique Polyketide Hybrid with a Cyclopentenone-Pyrone Skeleton from the Plant Endophytic Fungus Trichoderma gamsii” (J Nat Prod, 2017)

Experiments:
Format in all cases: functional, cell-based
A549 = experiment: Cytotoxicity against human A549 cells assessed as reduction in cell viability by MTT assay
HepG2 = experiment: Cytotoxicity against human HepG2 cells assessed as reduction in cell viability by MTT assay
HeLa = experiment: Cytotoxicity against human HeLa cells assessed as reduction in cell viability by MTT assay

Row | Compound | IC50 (A549) | IC50 (HepG2) | IC50 (HeLa)
1 | COc1cc([C@@H]2c3cc4c(cc3[C@@H](O[C@@H]3O[C@@H]5CO[C@@H](C)O[C@H]5[C@H](O)[C@H]3O)[C@H]3COC(=O)[C@H]23)OCO4)cc(OC)c1O [ETOPOSIDE] | 16.6 µM | 16.1 µM | 15 µM
2 | C=C[C@]1(O)CC(N)=C([C@@H](C)c2c(O)cc(C)oc2=O)C1=O | 16.9 µM | 30.8 µM | 33.9 µM
